Results from patent US5908781A, “Monoclonal antibodies to ceftiofur” (The United States of America as represented by the …, priority 1996, dated 1999).

Assays:
Cef-116 = test: Competitive indirect ELISA (ciELISA), competitor inhibition of MAb Cef-116 binding; parameters: species or system Balb/c mice; conditions: for IC50 (ppb) Values for Antibodies, Cef-116: MAb Cef-116, final dilution 1:100, BSA-S-GMBS-Cef-coated plates, value ± standard deviation, average of 3-6 determinations; for IC50 compared to ceftiofur, MAb Cef-116 (in words): ciELISA cross-reactivity; for fold reduction of binding: MAb Cef-116, printed "as compared to MAb Cef-68"
Description: (§1) The supernatant culture fluid from the cloned hybridomas may also be screened to select for those producing antibodies having a high affinity for ceftiofur. Affinity may be measured using a variety of well known techniques, such as ELISA, RIA or equilibrium dialysis using labeled ceftiofur. […] In accordance with this embodiment, the antibody containing supernatant is added to a ceftiofur or ceftiofur-complex coated substrate such as the wells of a microtiter plate, together with a range of concentrations of free ceftiofur as a competitor. Following incubation and washing, bound antibody in the wells is determined in the same manner as the db-ELISA. Percent inhibition may be calculated as (1-B/Bo)×100, where B is the optical density (OD) of a well with a competitor and Bo is the mean OD of the wells without competitor (control). […] However, for greater accuracy, the affinity may be alternatively measured at 50% inhibition (IC50).
(§2) Antibodies and ELISA Methods. A standard indirect ELISA method in which the hapten conjugate is immobilized on 96-well microtiter plates was used to evaluate the response of Balb/c mice towards the immunogen KLH-SMCC-desCef. The microtiter immunoplates (PGC Scientifics, Gaithersburg, Md.) were washed three times with a solution of 0.05% (v/v) polyoxyethylene sorbitan monolaurate (TWEEN 20)(Sigma Chemical Co., St. Louis, Mo.) in deionized water (TWEEN 20-water) and then coated with 100 μL of the coating antigen, BSA-SMCC-desCef (100 ng/well) in deionized water. The plates were dried overnight at 37° C. The plates were then washed three times with PBS-9 (0.01M sodium phosphate, 0.15M sodium chloride, pH 9) and the unbound active sites were blocked with 200 μL of 3% (w/v) nonfat milk in PBS-9 for 30 min at 37° C. The plates were washed three times with PBS-9, and 100 μL of supernatant containing the antibody was added to the microtiter plates, which were subsequently incubated for 60 min at 37° C. The unbound antibody was removed by washing the plate five times with TWEEN 20-water. Next, 50 μL of goat anti-mouse IgG-peroxidase conjugate (1:500 dilution)(Sigma Chemical Co., St. Louis, Mo.) was added, followed by incubation of the plates at 37° C. for 60 min. Finally, the plates were washed five times with TWEEN 20-water, 100 μL of K-blue substrate (Elisa Technologies, Lexington, Ky.) was added, and the absorbance was read at 655 nm.
(§3) For the ciELISA, the plates were prepared as above except that BSA-S-GMBS-Cef was used as the plate-coating antigen. Competitors were prepared in assay buffer (0.1M Tris, 0.15M sodium chloride, 0.01% (w/v) nonfat milk in deionized water, pH 7.75), added to the wells, and diluted in a 2-fold fashion immediately prior to addition of the anticeftiofur monoclonal antibody (Mab). Tissue culture media containing the anticeftiofur MAbs were used at a final dilution of 1:20 and 1:100 (for MAbs Cef-68 and Cef-116, respectively). The following competitors were used in a cross-reactivity study: ceftiofur sodium, cefteram sodium (Hoffmann-La Roche Inc., Nutley, N.J.), ceftriaxone sodium (Hoffmann-La Roche), cefuroxime sodium (Glaxo Man. Serv. Ltd., Barnard Castle, County Durham, England), ceftazidime pentahydrate (Glaxo), amoxicillin, ampicillin sodium, cefaclor, cefadroxil, cefamandole sodium, cefazolin sodium, cefoperazone sodium, cefotaxime sodium, cefoxitin sodium, cefsulodin sodium, cephalothin sodium, cephapirin sodium, cephradine, cloxacillin sodium, and penicillin-G sodium. Except where indicated otherwise, competitors were obtained from Sigma Chemical Co. (St. Louis, Mo.). The competitors were diluted to afford a solution containing a concentration range of 100-1000 ng/well in column 2 of the 96-well microtiter plates. Each competitor was serially diluted across the plate with columns 11 and 12 serving as controls (i.e. no competitor).

Cef-68 = test: Competitive indirect ELISA (ciELISA), competitor inhibition of MAb Cef-68 binding; parameters: species or system Balb/c mice; conditions: for IC50 (ppb) Values for Antibodies, Cef-68: MAb Cef-68, final dilution 1:20, BSA-S-GMBS-Cef-coated plates, value ± standard deviation, average of 3-6 determinations; for binding with MAb Cef-68 (in words): ciELISA cross-reactivity
Description: as §1, §2, §3

Row | SMILES | IC50 (ppb) Values for Antibodies, Cef-116 (Cef-116) [ppb] | IC50 compared to ceftiofur, MAb Cef-116 (in words) (Cef-116) | IC50 (ppb) Values for Antibodies, Cef-68 (Cef-68) [ppb] | binding with MAb Cef-68 (in words) (Cef-68) | fold reduction of binding (Cef-116) [fold]
1 | CO/N=C(\C(=O)N[C@@H]1C(=O)N2C(C(=O)O)=C(COC(C)=O)CS[C@H]12)c1csc(N)n1 [Cefotaxime, cefotaxime] | 0.48 ± 0.05 | IC50 values comparable to those observed with ceftiofur | 79.67 ± 0.58 | observed to bind | –
2 | CO/N=C(\C(=O)N[C@@H]1C(=O)N2C(C(=O)O)=C(Cn3nnc(C)n3)CS[C@H]12)c1csc(N)n1 [Cefteram, cefteram] | 3.57 ± 0.75 | – | 200.00 ± 10.00 | observed to bind | 10
3 | CO/N=C(\C(=O)N[C@@H]1C(=O)N2C(C(=O)O)=C(CSC(=O)c3ccco3)CS[C@H]12)c1csc(N)n1 [Ceftiofur, ceftiofur] | 0.33 ± 0.05 | – | 32.33 ± 0.58 | – | –
4 | CO/N=C(\C(=O)N[C@@H]1C(=O)N2C(C(=O)O)=C(CSc3nc(=O)c(=O)[nH]n3C)CS[C@H]12)c1csc(N)n1 [Ceftriaxone, ceftriaxone] | 0.33 ± 0.05 | IC50 values comparable to those observed with ceftiofur | 38.67 ± 8.62 | observed to bind | –
5 | CO/N=C(\C(=O)N[C@@H]1C(=O)N2C(C(=O)O)=C(COC(N)=O)CS[C@H]12)c1ccco1 [Cefuroxime, cefuroxime] | 406.67 ± 130.13 | – | – | – | 100
